One series deals with mouse models of PD. The following applies: orally administered, mice with constipation due to overexpression of human αS (West et al, manuscript in preparation); cited from earlier work.
A short description of series [1]: Pharmacokinetics of orally administered squalamine (ENT-01), Phase 2 trial. The format is in vivo, human. The following applies: for systemic absorption following oral administration: this study, PD patients; for oral bio-availability (estimated): based on pharmacokinetic behavior of intravenously administered squalamine in prior clinical studies. How it is done:
PK data were collected on the 10 patients enrolled in Stage 1 and 10 patients enrolled in Stage 2 to determine the extent of systemic absorption. In Stage 1, PK data were obtained at each visit, pre-medication, at 1, 2, 4, 8 and 24 hours (Table 10). In Stage 2, PK was measured on days 1 and 6 of the randomization period pre-medication, at 1, 2, 4 and 8 hours (Table 11).
The mean Cmax, Tmax and T1/2 and AUC of the squalamine ion following squalamine (ENT-01) oral dosing for Stage 1 patients. The PK analyses are only approximate, as the lower limit of the validated concentration range was 10 ng/ml; most of the measured concentrations fell below that value. The mean Cmax, Tmax and T1/2 and AUC of the squalamine ion following squalamine (ENT-01) oral dosing for Stage 2 patients. The PK analyses are only approximate, as the lower limit of the validated concentration range was 0.5 ng/ml.

For series [2] the following is noted: prior studies; systemic blood levels one thousand-fold greater than oral; cited from earlier work.
For series [3], the system named is IPANs (intrinsic primary afferent neuron). The settings on record: isolated bowel segment, PD mouse model; increasing frequency of propulsive peristaltic contractions; cited from earlier work.
The conditions of series [4]: rats, prior studies; cited from earlier work.
The conditions of series [5]: mice, prior studies; cited from earlier work.
The conditions of series [6]: dogs, prior studies; cited from earlier work.
Series [7] concerns patients with PD and constipation. As to the kind of experiment: Circadian rhythm of wrist skin temperature. The following applies: for effect on circadian rhythm of skin temperature: oral administration, 12 patients with evaluable data. Type of series: in vivo, human. How it is done:
(6) I-Button Temperature Assessment. The I-Button is a small, rugged self-sufficient system that measures temperature and records the results in a protected memory section. The Thermochron I-Button DS1921H (Maxim Integrated, Dallas, Tex.) was used for skin temperature measurement. I-Buttons were programmed to sample every 10 mins., and attached to a double-sided cotton sport wrist band using Velcro, with the sensor face of the I-Button placed over the inside of the wrist, on the radial artery of the dominant hand. Subjects removed and replaced the data logger when necessary (i.e., to have a bath or shower). The value of skin temperature assessment in sleep research is that the endogenous skin warming resulting from increased skin blood flow is functionally linked to sleep propensity. From the collected data, the mesor, amplitude, acrophase (time of peak temperature), Rayleight test (an index of interdaily stability), mean waveforms are calculated);
Assessments were made at baseline and at the end of the fixed dose and washout periods. Circadian system status was evaluated by continuously monitoring wrist skin temperature (Thermochron iButton DS1921H; Maxim, Dallas) following published procedures (Sarabia et al. 2008).
Circadian rhythm of skin temperature was evaluable in 12 patients (i.e., those who had recordings that extended from baseline through washout). Circadian system functionality was evaluated by continuously monitoring wrist skin temperature using a temperature sensor (Thermochron iButton DS1921H; Maxim, Dallas, Tex.) (Sarabia et al. 2008). A nonparametric analysis was performed for each participant to characterize DST as previously described (Sarabia et al. 2008; Ortiz-Tudela et al. 2010).
Briefly, this analysis includes the following parameters: (i) the inter-daily stability (the constancy of 24-hour rhythmic pattern over days, IS); (ii) intra-daily variability (rhythm fragmentation, IV); (iii) average of 10-minute intervals for the 10 hours with the minimum temperature (L10); (iv) average of 10-minute intervals for the 5 hours with the maximum temperature (M5) and the relative amplitude (RA), which was determined by the difference between M5 and L10, divided by the sum of both. Finally, the Circadian Function Index (CFI) was calculated by integrating IS, IV, and RA. Consequently, CFI is a global measure that oscillates between 0 for the absence of circadian rhythmicity and 1 for a robust circadian rhythm (Ortiz-Tudela et al. 2010).

The test system is the same in series [8]. The experiment in a line: Safety and adverse event profile, Phase 2 trial. Type of series: in vivo, human. How it is done:
(§1) Tolerability limits included diarrhea or vomiting.
(§2) In Stage 2, 34 patients were evaluated.

The test system is the same in series [9]. The experiment in a line: CNS symptoms in Stage 2 (UPDRS, MMSE, PDHQ, BDI-II, hallucinations). The format is in vivo, human. The settings on record: 6 patients with hallucinations (5) or delusions (1) at baseline. An excerpt:
(8) Beck Depression Inventory (BDI-II);
(9) Unified Parkinson's Disease Rating Scale (UPDRS), which consists of 42 items in four subscales (Part I=Non-Motor Aspects of Experiences of Daily Living (nM-EDL) (1.1 cognitive impairment, 1.2 hallucinations and psychosis, 1.3 depressed mood, Part II=Motor Aspects of Experiences of Daily Living (M-EDL), Part III=Motor Examination, and Part IV=Motor Complications;
(10) Mini Mental State Examination (MMSE);
(12) The University of Miami Parkinson's Disease Hallucinations Questionnaire (UM-PDHQ); […]
Assessments were made at baseline and at the end of the fixed dose and washout periods. Circadian system status was evaluated by continuously monitoring wrist skin temperature (Thermochron iButton DS1921H; Maxim, Dallas) following published procedures (Sarabia et al. 2008). […]

The test system is the same in series [10]. As to the kind of experiment: Effect on bowel function, Phase 2 trial (Stage 1 single dose, Stage 2 daily dosing). The format is in vivo, human. How it is done:
Overview: The subjects of the trial all had PD and experienced constipation, which is a characteristic of PD. The primary objectives of the trial involving patients with PD and constipation were to evaluate the safety and pharmacokinetics of oral squalamine (ENT-01) and to identify the dose required to improve bowel function, which was used as a clinical endpoint.
ENT-01 is the phosphate salt of squalamine. For this study it has been formulated as a small 25 mg coated tablet. Dosing ranged from 25 mg to 250 mg, with dosages greater than 25 mg requiring multiple pills (e.g., 50 mg=two 25 mg pills). Dosing instructions=take 60 mins before breakfast with 8 oz. water. The dose was taken by each patient upon awakening on an empty stomach along with 8 oz. of water simultaneously to dopamine. The subject was not allowed to ingest any food for at least 60 minutes after study medication. The compound is highly charged and will adsorb to foodstuffs, so it was administered prior to feeding.
Following successful screening, all subjects underwent a 14-day run-in period where the degree of constipation was assessed through a validated daily log (Zinsmeister et al. 2013) establishing baseline CSBMs/week. Subjects with an average of <3 CSBMs/week proceeded to dosing.
as §1, §2
The primary efficacy outcome variable was whether or not a subject was a “success” or “failure”. This is an endpoint based on subject diary entries for the “fixed dose” period prior to the endpoint assessment defined as average complete stool frequency increase by 1 or more over baseline, or 3 or more complete spontaneous stools/week. The subject was deemed a “success” if s/he met one or more of the criteria listed above, otherwise the subject was deemed a “failure”. The primary analysis was based on all subjects with a baseline assessment and an assessment at the end of the “fixed-dose” period and was a comparison of the proportion of successes with 0.10 (the null hypothesis corresponding to no treatment effect).

The test system is the same in series [11]. As to the kind of experiment: Sleep diary (total sleep time, REM-behavior disorder). Type of series: in vivo, human. The following applies: beyond 125 mg. How it is done: FIG. 3 is a chart of total sleep time in relation to squalamine dose. Total sleep time was obtained from the sleep diary by subtracting awake time during the night from total time spent in bed. Total sleep time per night was logged for each patient at baseline, each dosing period and at washout, and the means were determined. The light grey bar represents the baseline value for each cohort at a given dose level and the dark grey bar represents the value for the same cohort at the stated dose of squalamine (ENT-01). The number of patients represented at each value are: Baseline, 33; 75 mg, 21; 100 mg, 28; 125 mg, 18; 150 mg, 15; 175 mg, 12; 200 mg, 7; 225 mg, 3; 250 mg, 2; washout, 33. P values were as follows: 75 mg, p=0.4; 100 mg, p=0.1; 125 mg, p=0.3; 150 mg, p=0.07; 175 mg, p=0.03; 200 mg, p=0.3; 225 mg, p=0.5; 250 mg, p=0.3; wash-out, p=0.04 (paired t test).
(5) Sleep Diary (participants completed a sleep diary on a daily basis throughout the study. The diaries included time into bed and estimated time to sleep as well as wake time and duration during the night); […]

[12] abbreviates: Stage 2, fixed dose, n = 34, weekly average.
Where [13] appears, read: Stage 2, fixed dose, n = 34, weekly average, listed as aminosterol.

Values joined by “and” are separate entries in the source; they are usually repeats but may differ in a detail not shown here. Identical values can stand only once. “Also recorded” adds a separate entry of the source. Like-named read-outs stand apart in the source and are kept apart here.

On to `CC(C)[C@@H](CC[C@@H](C)[C@H]1CC[C@H]2[C@@H]3[C@H](O)C[C@H]4C[C@@H](NCCCNCCCCN)CC[C@]4(C)[C@H]3CC[C@]12C)OS(=O)(=O)O` [squalamine], for which the gastro-intestinal motility result in the series with mouse models of PD is reported as “stimulates gastro-intestinal motility”. For the same compound, the “systemic absorption following oral administration” value in [1] is recorded as “not significantly absorbed into the systemic circulation”. Further, the “gastrointestinal motility after intravenous administration” value in [2] is on record as “not associated with increased gastrointestinal motility”. In addition, in series [3], the “effect on IPANs of the ENS” value was “excitation of IPANs”.
For the compound `CC(C)[C@@H](CC[C@@H](C)[C@H]1CC[C@H]2[C@@H]3[C@H](O)C[C@H]4C[C@@H](NCCCNCCCCN)CC[C@]4(C)[C@H]3CC[C@]12C)OS(=O)(=O)O` (single isomer, unassigned) [squalamine (ENT-01), squalamine], the “oral bio-availability (estimated)” value in series [1] is reported as “less than 0.3%”. In addition, in series [1] (listed as aminosterol), the “oral bio-availability (estimated)” value was less than 0.3% and the “systemic absorption following oral administration” value is on record as “negligible”. Besides, the “systemic absorption following oral administration” value in series [4] is given as “negligible”. For the same compound, the “systemic absorption following oral administration” value in [5] was “negligible”. Moreover, the “systemic absorption following oral administration” value in series [6] is on record as “negligible”. Besides, the “effect on circadian rhythm of skin temperature” value in series [7] is reported as “significant positive impact; also recorded: improved all markers of healthy circadian function”. Besides, in [7] (listed as Aminosterol), the “effect on circadian rhythm of skin temperature” value is “improved all markers of healthy circadian function”. For the same compound, in series [7] (wash-out period, p=0.004), the “improvement of CFI during wash-out” value was “persisted”. The “improvement of IS during wash-out” value in series [7] (wash-out period, p=0.008) is reported as “persisted”. In series [8] (Stage 2 (34 dosed)), the “Diarrhea, Mild” value was 12 (35)^ n, %; the “Difficulty falling asleep, Mild” value is given as 1 (3)^ n, %; the “Eye infection, Mild” value was 1 (3)^ n, %; the “Flatulence, Mild” value was 1 (3)^ n, %. Besides, in series [8] (Stage 2 (34 dosed)), the “Nausea, Mild” value is given as 18 (52)^ n, %; the “Urinary retention, Mild” value is listed as 1 (3)^ n, %; the “Urinary tract infection, Mild” value was 1 (3)^ n, %; the “Worsening hemorrhoid, Mild” value is on record as 1 (3)^ n, %. Also, the “patients with worsening of hemorrhoids” value in series [8] (all dosed, 1/44) was found to be 2.2%. Besides, the “patients with worsening of acid reflux” value in series [8] (all dosed, 2/44) is recorded as 4.5%. In series [8] (all dosed, 3/44), this compound displayed a patients with flatulence of 6.8% and a patients with vomiting of 6.8%. The compound further came in with a patients with dizziness in series [8] (all dosed, 8/44) of 18%. In addition, the “patients with abdominal pain” value in [8] (all dosed, 11/44) was found to be 32%. Besides, in series [8] (withdrawal period, considered unrelated to study medication), the “Serious adverse event (SAE)” value is reported as “One patient had a lower GI bleed”. The “patients in whom hallucinations and delusions improved or disappeared during treatment” value in series [9] is “improved or disappeared during treatment in five”. Also, in series [9] (listed as aminosterol), the “patients in whom hallucinations and delusions improved or disappeared during treatment” value is listed as “improved or disappeared during treatment in five”. Besides, in series [10] (setting [12]), the “CSBM (mean, SD)” value is 3.8 CSBM/week and 3.8 (2.4) CSBM/week; the “Suppository use / rescue medication (mean, SD)” value is 0.3 /week and 0.3 (0.67) /week. Also, in [10] (setting [13]), the “CSBM (mean, SD)” value was 3.8 CSBM/week; the “SBM (mean, SD)” value was 4.5; the “Suppository use / rescue medication (mean, SD)” value is 0.3 /week. Moreover, the “prokinetic dose (mean)” value in series [10] (patients with baseline ≥1 CSBM/week) was 120 mg. Further, in series [11], the “total sleep time vs baseline” value was “consistently higher than baseline”.

These data come from patent US11464789B2, “Aminosterol compositions and methods of using the same for treating schizophrenia” (Enterin, Inc., priority 2018, dated 2022).
